The supplement of paper PMC5908809

Experiments:
[1] = test system: normal NK cells expanded with K562-aAPC; experiment: drug sensitivity score (DSS) (DSS units); higher = more sensitive; extreme values may be limits of the assay; settings: 72 h; IL-2 2.5 ng/mL
Procedure: (§1)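 Drug sensitivity and resistance testing on K562-aAPC-expanded normal NK cells: 5 concentrations (10-fold steps over a 10,000-fold range), 72 h at 37 °C, viability by CellTiter-Glo normalised to DMSO and benzethonium chloride controls; DSS from the fitted curve.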

[2] = test system: normal NK cells expanded with K562-aAPC; experiment: percent inhibition of viability; higher = more inhibition; settings: 72 h, IL-2 2.5 ng/mL
Procedure: as §1

[3] = test system: SNK-6 (IL-2 2.5 ng/mL); experiment: drug sensitivity score (DSS) (DSS units); higher = more sensitive; extreme values may be limits of the assay; settings: 72 h
[4] = test system: normal primary NK cells, pool 3 (3 donors) (IL-2 2.5 ng/mL); experiment: as above; settings: 72 h
[5] = test system: KAI3 (IL-2 2.5 ng/mL); experiment: as above; settings: 72 h
[6] = test system: NK-YS (IL-2 2.5 ng/mL); experiment: as above; settings: 72 h
[7] = test system: normal primary NK cells, pool 1 (3 donors) (IL-2 2.5 ng/mL); experiment: as above; settings: 72 h
[8] = test system: NKL (IL-2 2.5 ng/mL); experiment: as above; settings: 72 h
[9] = test system: IMC-1 (IL-2 20 ng/mL); experiment: as above; settings: 72 h
[10] = test system: DERL-7 (IL-2 2.5 ng/mL); experiment: as above; settings: 72 h
[11] = test system: YT (IL-2 2.5 ng/mL); experiment: as above; settings: 72 h
[12] = test system: normal primary NK cells, pool 1 (3 donors), resting (IL-2 0 ng/mL); experiment: as above; settings: 72 h
[13] = test system: NK-92 (IL-2 2.5 ng/mL); experiment: as above; settings: 72 h
[14] = test system: normal primary NK cells, pool 2 (3 donors) (IL-2 2.5 ng/mL); experiment: as above; settings: 72 h
[15] = test system: KHYG-1 (IL-2 2.5 ng/mL); experiment: as above; settings: 72 h
[16] = test system: SNK-6 (IL-2 2.5 ng/mL); experiment: percent inhibition of viability; higher = more inhibition; settings: 72 h
[17] = test system: normal primary NK cells, pool 3 (3 donors) (IL-2 2.5 ng/mL); experiment: as above; settings: 72 h
[18] = test system: KAI3 (IL-2 2.5 ng/mL); experiment: as above; settings: 72 h
[19] = test system: NK-YS (IL-2 2.5 ng/mL); experiment: as above; settings: 72 h
[20] = test system: normal primary NK cells, pool 1 (3 donors) (IL-2 2.5 ng/mL); experiment: as above; settings: 72 h
[21] = test system: NKL (IL-2 2.5 ng/mL); experiment: as above; settings: 72 h
[22] = test system: IMC-1 (IL-2 20 ng/mL); experiment: as above; settings: 72 h
[23] = test system: DERL-7 (IL-2 2.5 ng/mL); experiment: as above; settings: 72 h
[24] = test system: YT (IL-2 2.5 ng/mL); experiment: as above; settings: 72 h
[25] = test system: normal primary NK cells, pool 1 (3 donors), resting (IL-2 0 ng/mL); experiment: as above; settings: 72 h
[26] = test system: NK-92 (IL-2 2.5 ng/mL); experiment: as above; settings: 72 h
[27] = test system: normal primary NK cells, pool 2 (3 donors) (IL-2 2.5 ng/mL); experiment: as above; settings: 72 h
[28] = test system: KHYG-1 (IL-2 2.5 ng/mL); experiment: as above; settings: 72 h

Cn1c(=O)c(F)c(Nc2ccc(I)cc2F)c2c(=O)n(C[C@@H](O)CO)cnc21 [TAK-733] (max concentration tested 1000 nM)
Settings	drug sensitivity score
[1]	0.89
[3]	0
[4]	0
[5]	5.51
[6]	1.77
[7]	0.17
[8]	17.2
[9]	1
[10]	10.7
[11]	0.35
[12]	0
[13]	0.33
[14]	2.88
[15]	11.7

percent inhibition of viability [%]
Settings	0.1 nM	1 nM	10 nM	100 nM	1000 nM
[2]	-0.54	1.65	5.46	3.7	18.7
[16]	6	0.96	-6.2	3.19	-10.3
[17]	-10.4	-14.4	-11.3	2.73	8.36
[18]	2.03	4.38	17.2	23.1	29.4
[19]	-2.42	2.48	3.61	10.7	25.6
[20]	-3.53	3.59	5.44	11.3	7.77
[21]	0.9	12	40.6	60.1	81.3
[22]	-1.32	1.37	0.58	3.83	18.9
[23]	3.05	13.4	23	41.5	47.2
[24]	-3.29	0.91	1.73	6.99	14.3
[25]	-1.91	4.44	-3.15	-6.45	-3.7
[26]	3	0.98	-25.3	-5.54	19.1
[27]	-4.31	-4.06	11.2	17	13.8
[28]	4.66	9.31	20.6	48.8	64.9

CCS(=O)(=O)c1cccc(-c2cc(C(=O)NC3CCN(C)CC3)c(C)c3[nH]c4ncc(C)cc4c23)c1 [TAK-901] (max concentration tested 1000 nM)
Settings	drug sensitivity score
[1]	2.88
[3]	6.86
[4]	0
[5]	8.03
[6]	12.9
[7]	2.88
[8]	7.8
[9]	10.6
[10]	12.5
[11]	2.64
[12]	1.6
[13]	0
[14]	0.75
[15]	5.36

percent inhibition of viability [%]
Settings	0.1 nM	1 nM	10 nM	100 nM	1000 nM
[2]	-4.46	-2.36	-2.68	2.78	47.6
[16]	6.55	11.7	6.25	25.7	70.1
[17]	1.04	-10.9	-10.6	-10.1	8.18
[18]	1.13	2.62	9.88	32.9	77.5
[19]	-2.75	-0.83	5.54	65.6	70.5
[20]	-7.61	-7.94	3.96	1	52
[21]	-9.65	-9.74	-13.2	31.8	67.5
[22]	-1.14	1.82	-2.81	39.8	96.9
[23]	-2.6	5.56	-0.1	67.8	79.7
[24]	0.92	-0.2	0.62	11.9	28.7
[25]	-2.04	-13.9	9.75	-5.23	39.3
[26]	-8.6	-16.9	-4.19	-5.4	6
[27]	-4.84	-2.84	-10.5	-3.4	24.9
[28]	-0.42	-4.46	-1.82	9.29	69

Cc1cc(C(C)Nc2ccccc2)c2nc(N3CCOCC3)cc(=O)n2c1 (stereo unspecified) [TGX-221] (max concentration tested 10000 nM)
Settings	drug sensitivity score
[1]	2.2
[3]	0
[4]	0.14
[5]	1.55
[6]	1.43
[7]	1.93
[8]	2.96
[9]	0
[10]	1.37
[11]	2.28
[12]	4.9
[13]	6.45
[14]	2
[15]	0

percent inhibition of viability [%]
Settings	1 nM	10 nM	100 nM	1000 nM	10000 nM
[2]	-0.66	0.04	5.39	4.41	32.4
[16]	31	21.5	15.7	15.3	-7.08
[17]	-7.93	-8.91	-2.84	3.04	11.7
[18]	-3.13	-6.25	-6.02	4.84	23.6
[19]	-2.78	-1.69	-1.28	2.25	27.1
[20]	-13.5	-0.76	-6.33	4.04	29.7
[21]	2.96	0.41	10.3	15.5	28
[22]	-6.36	-5.05	-4.93	-4.5	-0.86
[23]	0.96	-2.74	-1.99	1.82	27.4
[24]	-1.99	2.32	1.97	11.6	28.1
[25]	-4.4	0.78	-11.3	14.5	51.2
[26]	2.02	4.62	5.66	32.2	31.8
[27]	-16.6	-10.3	-4.51	4.63	29.4
[28]	2.88	11.7	4.06	7.54	14.4

C=CC[C@@H]1/C=C(\C)C[C@H](C)C[C@H](OC)[C@H]2O[C@@](O)(C(=O)C(=O)N3CCCC[C@H]3C(=O)O[C@H](/C(C)=C/[C@@H]3CC[C@@H](O)[C@H](OC)C3)[C@H](C)[C@@H](O)CC1=O)[C@H](C)C[C@@H]2OC [Tacrolimus] (max concentration tested 10000 nM)
Settings	drug sensitivity score
[1]	0
[3]	0.32
[4]	0
[5]	0
[6]	1.16
[7]	2.93
[8]	0
[9]	0.7
[10]	0.55
[11]	1.73
[12]	6.54
[13]	2.16
[14]	1.72
[15]	0.17

percent inhibition of viability [%]
Settings	1 nM	10 nM	100 nM	1000 nM	10000 nM
[2]	-12.2	-4.97	-9.06	-4.26	-5.39
[16]	6.17	-4.96	-13.1	-0.42	16.6
[17]	10.7	1.86	-0.29	-2.25	1.84
[18]	-0.56	6.96	5.19	-3.38	1.06
[19]	1.38	-3.09	1.86	5.94	19.8
[20]	-2.12	0.6	4.89	4.45	43.2
[21]	-8.22	-6.4	-3.18	8.38	3.72
[22]	1.61	-1.68	-1.5	-2.11	23.3
[23]	-6.89	-0.55	-1.59	-6.35	23
[24]	0.78	-1.87	1.16	5.77	24.4
[25]	-2.76	-12.4	9.06	17.2	71.7
[26]	-18.9	-10.1	-13.5	5.35	30.1
[27]	6.61	4.19	3.62	3.15	28.9
[28]	-2.54	-4.56	1.9	0.69	13.5
